# Results taken from ChEMBL document CHEMBL1201862, “PubChem BioAssay data set” (2004).
# Values joined by “and” are separate entries in the source; they are usually repeats but may differ in a detail not shown here. Identical values can stand only once. Active and inactive are the calls of the source.
# What was measured:
# [1] = P. falciparum Dd2 growth inhibitors, dose response, SYBR Green, cherry-picked samples (AID 1159567); assay type: functional, cell-based
# [2] = toxicity to human hepatoma HepG2 cells – cell-based, cherry-picked samples, cytotoxicity control, dose response (AID 1159577); assay type: functional
# [3] = luciferase reporter signal suppression in cells – H4 neuroglioma cells, luminescence, dose response (AID 1990); assay type: functional, cell-based
# BJ [4] = assay: BJ-TERT fibroblast viability loss – cell-based, RAS-independent, luminescence, dose response (AID 1933); assay type: functional; conditions: Homo sapiens
# [5] = Luminescence Cell-Based Dose Response HTS to Identify Inhibitors of 5'UTR Stem-Loop Driven Prion Protein mRNA Translation in H4 Neuroglioblastoma Cells. [Related pubchem assays: 1827 (Project Summary), 1813 (Primary HTS)]; assay type: functional
# [6] = alpha-synuclein stem-loop luciferase translation blockers – H4 neuroglioma cells, luminescence, confirmation (AID 1988); assay type: functional, cell-based
# BJ [7] = assay: cells; assay type: functional, cell-based; conditions: Homo sapiens
# BJ [8] = assay: BJ-TERT-LT-ST fibroblast viability loss – cell-based, RAS-independent, luminescence, dose response (AID 1935); assay type: functional; conditions: Homo sapiens;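 further: BJ fibroblasts immortalized with TERT plus LT and ST oncogenes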
# [9] = DRD fibroblast viability loss – cell-based, non-viral oncogenic, luminescence, dose response (AID 1934); assay type: functional; conditions: Homo sapiens
# [10] = Luminescence Cell-Based Dose Retest to Confirm Inhibitors of Cancer Stem Cells. [Related pubchem assays (depositor defined):AID2717, AID2721]; assay type: functional; conditions: Homo sapiens
# INS1 = assay: INS-1E survival protection against cytokine death – cell-based, luminescence, retest, dose response (AID 449756); assay type: functional; conditions: Rattus norvegicus;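 further: cell death triggered by IL-1 beta plus TNF-alpha plus IFN-gamma mixture; protective hits raise ATP signal compared with cytokine alone wells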
# [11] = HEK-293T viability loss after treatment – luminescence, T-cell screen hits, cytotoxicity control for TCR NF-kB inhibitor project, dose response (AID 489026); assay type: functional, cell-based;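 further: cells exposed to compound about 14 hours before the viability readout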
# [12] = molecular target: T1, Heat shock factor protein 1 (Mus musculus, UniProt P38532); assay: decrease of HSF1-responsive luciferase luminescence – cell-based, NIH3T3, dose retest, confirmation (AID 2382); assay type: functional;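 further: NIH3T3 fibroblasts with HSF1-driven luciferase reporter stressed by proteasome inhibitor MG132; luminescence from HSF1-driven luciferase expression after 8 hours of MG132 stress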
# T1 sequence (P38532 whole entry): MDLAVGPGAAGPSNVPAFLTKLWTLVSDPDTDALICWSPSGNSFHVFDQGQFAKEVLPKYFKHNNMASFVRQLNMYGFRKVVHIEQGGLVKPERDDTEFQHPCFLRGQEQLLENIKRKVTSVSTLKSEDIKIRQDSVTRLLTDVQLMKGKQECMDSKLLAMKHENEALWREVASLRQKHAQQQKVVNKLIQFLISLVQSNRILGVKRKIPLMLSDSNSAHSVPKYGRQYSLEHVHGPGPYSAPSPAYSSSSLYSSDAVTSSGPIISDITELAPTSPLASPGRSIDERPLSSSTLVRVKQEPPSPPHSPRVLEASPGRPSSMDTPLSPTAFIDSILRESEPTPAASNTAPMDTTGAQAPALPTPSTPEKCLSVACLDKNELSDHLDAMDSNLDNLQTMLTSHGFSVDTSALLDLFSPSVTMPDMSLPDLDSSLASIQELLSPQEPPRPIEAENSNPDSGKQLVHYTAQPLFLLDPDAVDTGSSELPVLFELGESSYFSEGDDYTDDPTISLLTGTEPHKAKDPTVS
# [13] = molecular target: Beta-2 adrenergic receptor (Homo sapiens, UniProt P07550); assay: ADRB2 activation measured by internalization – cell-based, FAP fluorogen, flow cytometry, cherry pick 1, dose response (AID 588763); assay type: functional
# Beta-2 adrenergic receptor, sequence (P07550 whole entry): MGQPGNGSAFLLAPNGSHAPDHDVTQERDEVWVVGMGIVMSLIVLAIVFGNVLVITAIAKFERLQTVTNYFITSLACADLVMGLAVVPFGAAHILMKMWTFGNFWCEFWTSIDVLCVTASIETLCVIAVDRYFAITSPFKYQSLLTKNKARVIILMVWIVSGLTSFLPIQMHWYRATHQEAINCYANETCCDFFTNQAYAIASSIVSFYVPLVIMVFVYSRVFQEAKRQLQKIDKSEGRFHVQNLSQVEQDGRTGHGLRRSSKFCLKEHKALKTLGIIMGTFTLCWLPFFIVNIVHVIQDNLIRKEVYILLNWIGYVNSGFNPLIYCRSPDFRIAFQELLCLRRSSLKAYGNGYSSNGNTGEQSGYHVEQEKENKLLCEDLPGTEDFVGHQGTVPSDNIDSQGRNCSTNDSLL
# [14] = molecular target: T2, High affinity choline transporter 1 (Homo sapiens, UniProt Q9GZV3); assay: human choline transporter blockers, potency – cell-based, 5-point CRC, membrane potential dye, dose response (AID 504840); assay type: functional
# T2 sequence (Q9GZV3 whole entry): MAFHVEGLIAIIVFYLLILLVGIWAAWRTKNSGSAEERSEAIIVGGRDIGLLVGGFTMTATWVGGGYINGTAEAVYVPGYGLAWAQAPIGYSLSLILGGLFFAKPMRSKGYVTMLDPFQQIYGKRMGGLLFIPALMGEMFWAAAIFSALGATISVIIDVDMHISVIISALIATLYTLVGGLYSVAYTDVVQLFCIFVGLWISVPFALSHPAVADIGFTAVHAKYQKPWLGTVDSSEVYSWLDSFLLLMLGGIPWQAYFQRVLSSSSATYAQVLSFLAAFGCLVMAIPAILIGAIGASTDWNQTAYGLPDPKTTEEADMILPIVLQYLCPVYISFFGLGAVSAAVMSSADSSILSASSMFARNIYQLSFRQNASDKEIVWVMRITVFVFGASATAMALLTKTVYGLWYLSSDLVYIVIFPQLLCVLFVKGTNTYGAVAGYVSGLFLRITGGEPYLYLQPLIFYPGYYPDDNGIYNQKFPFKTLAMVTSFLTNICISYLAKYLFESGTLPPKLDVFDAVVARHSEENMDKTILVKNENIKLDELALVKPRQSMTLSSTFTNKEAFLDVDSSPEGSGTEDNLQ
# [15] = molecular target: T2, High affinity choline transporter 1; assay: human choline transporter blockers, potency – cell-based, 10-point CRC, membrane potential dye, dose response (AID 588401); assay type: functional;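 further: membrane potential dye fluorescence of choline-evoked depolarization via CHT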
# Paired box protein Pax-8 = Paired box protein Pax-8 (Homo sapiens, UniProt Q06710); assay: PAX8 transcriptional activity inhibition in RMG-I – RMG-I cells, luciferase, cherry-pick, dose response (AID 687027); assay type: functional, cell-based;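 further: luciferase reporter driven by Pax8 target thyroperoxidase promoter measured by SteadyGlo luminescence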
# Paired box protein Pax-8, sequence (Q06710 whole entry): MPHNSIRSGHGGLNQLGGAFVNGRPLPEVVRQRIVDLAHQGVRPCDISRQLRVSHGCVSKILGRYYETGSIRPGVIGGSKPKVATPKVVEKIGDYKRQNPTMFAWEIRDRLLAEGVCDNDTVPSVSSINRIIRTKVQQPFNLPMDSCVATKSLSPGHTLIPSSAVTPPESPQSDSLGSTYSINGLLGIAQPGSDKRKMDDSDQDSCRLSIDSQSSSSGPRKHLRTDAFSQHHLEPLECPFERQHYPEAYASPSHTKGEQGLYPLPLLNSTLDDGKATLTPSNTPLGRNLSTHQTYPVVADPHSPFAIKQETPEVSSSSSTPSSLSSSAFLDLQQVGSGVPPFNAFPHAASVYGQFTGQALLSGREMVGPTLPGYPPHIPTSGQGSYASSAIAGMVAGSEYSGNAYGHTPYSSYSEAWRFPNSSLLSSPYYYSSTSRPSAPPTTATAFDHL
# [16] = general cell-killing toxicity readout – plate reader, dry powder samples, cytotoxicity control for PAX8 inhibitor project, dose response (AID 743021); assay type: functional, cell-based
# [17] = molecular target: T3, DNA repair protein RAD52 homolog (Homo sapiens, UniProt P43351); assay type: functional, biochemical
# T3 sequence (P43351 whole entry): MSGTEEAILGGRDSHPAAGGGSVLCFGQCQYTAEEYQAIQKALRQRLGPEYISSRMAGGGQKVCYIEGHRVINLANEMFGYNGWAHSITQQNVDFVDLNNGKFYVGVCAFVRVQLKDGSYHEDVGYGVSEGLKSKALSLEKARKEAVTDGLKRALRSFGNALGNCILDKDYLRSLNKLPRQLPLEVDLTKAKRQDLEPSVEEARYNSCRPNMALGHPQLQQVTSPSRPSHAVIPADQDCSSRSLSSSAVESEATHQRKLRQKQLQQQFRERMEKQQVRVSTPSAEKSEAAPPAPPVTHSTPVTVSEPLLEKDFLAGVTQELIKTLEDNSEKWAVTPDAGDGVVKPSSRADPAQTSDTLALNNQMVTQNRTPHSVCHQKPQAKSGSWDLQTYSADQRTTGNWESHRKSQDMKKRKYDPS
# [18] = molecular target: T4, Calpain-2 catalytic subunit (Sus scrofa, UniProt P43367); assay: m-calpain protease blockers, concentration series – biochemical, fluorogenic peptide substrate, dose response (AID 1420); assay type: functional
# T4 sequence (P43367 whole entry): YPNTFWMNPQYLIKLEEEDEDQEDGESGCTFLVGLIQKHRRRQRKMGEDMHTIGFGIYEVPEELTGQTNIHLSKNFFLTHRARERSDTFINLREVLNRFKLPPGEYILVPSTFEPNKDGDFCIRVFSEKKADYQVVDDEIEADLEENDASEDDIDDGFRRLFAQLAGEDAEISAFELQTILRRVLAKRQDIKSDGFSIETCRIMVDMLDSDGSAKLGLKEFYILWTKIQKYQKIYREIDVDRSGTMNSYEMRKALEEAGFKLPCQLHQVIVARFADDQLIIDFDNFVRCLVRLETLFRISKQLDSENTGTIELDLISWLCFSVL
# [19] = blockers of HIV-1 envelope-mediated cell-cell fusion – cherry-pick, dose response (AID 652057); assay type: functional, cell-based
# [20] = off-target signal loss in HeLa-CEM21 co-culture – HeLa F-luc CTL cells, cherry-picked, counter-screen for HIV-1 Env fusion inhibitor project, dose response (AID 652040); assay type: functional, cell-based;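 further: potency for signal decrease marking cytotoxic or nonspecific inhibition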
# [21] = HIV-1 AD8 envelope cell-cell fusion blockers – cherry-pick, dose response (AID 652062); assay type: functional, cell-based;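 further: luciferase signal from cell-cell fusion driven by HIV-1 clade B AD8 Env; potency is for inhibitors of fusion seen as a drop in luminescence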
# [22] = blockers of HIV-1 ZM109 envelope-driven cell-cell fusion – HeLa effector, CEM target cells, luciferase, cherry-pick, dose response (AID 652058); assay type: functional, cell-based;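 further: luciferase signal from HIV-1 Env mediated cell-cell fusion of effector and target cells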
# [23] = viability of uninfected HEp-2 cells – cell-based, HTS, cytotoxicity control for RSV inhibitor project, dose response (AID 2410); assay type: functional; conditions: human respiratory syncytial virus
# [24] = viability loss in THP-1 monocytes – THP-1 cells, cytotoxicity control for Vif-APOBEC3G degradation inhibitor project, dose response (AID 1117359); assay type: functional; conditions: THP-1
compound,measurement,setting,value
COc1cccc(S(=O)(=O)Nc2ccc3c(c2)[C@@H]2C[C@H](CC(=O)NCc4ccccc4F)O[C@@H](CO)[C@@H]2O3)c1,AC50,[1],5.32 µM (active)
same,AC50,[2],> 39 µM (inactive)
COc1ccc(/C=C/C(=O)c2ccc([N+](=O)[O-])o2)cc1OC,EC50,[3],9.14 µM (active)
same,EC50,BJ [4],> 150 µM (not active)
same,EC50,[5],10.5 µM (active)
same,EC50,[6],> 120 µM (not active)
same,EC50,BJ [7],> 150 µM (inconclusive)
same,EC50,BJ [8],1.15 µM (inconclusive)
same,EC50,[9],2.58 µM (inconclusive)
same,AC50,[10],2.09 µM (active)
same,AC50,INS1,3.94 µM (active)
Oc1cc(-c2ccccc2)nc2cc(F)ccc12,IC50,[11],> 80 µM (inactive)
CCCCOc1cccc(C(=O)Nc2ccc(NC(=O)c3cccs3)cc2)c1,EC50,[12],9.51 µM (active)
same,EC50,[13],0.256 µM (active)
CCC(=O)c1ccc(OCC(=O)N2CCN(CC(=O)Nc3ccc(C)cc3)CC2)cc1,EC50,[13],0.0646 µM (active)
c1cn(C23CC4CC(CC(C4)C2)C3)cn1,IC50,[14],7.43 µM (active)
same,IC50,[15],3.57 µM (active)
COc1cccc(NC(=O)Nc2nc(-c3ccc(OC)c(OC)c3)cs2)c1,EC50,BJ [4],5.89 µM (active)
same,EC50,BJ [7],8.03 µM (active)
same,EC50,BJ [8],9.04 µM (inconclusive)
same,EC50,[9],5.56 µM (active)
same,AC50,Paired box protein Pax-8,7.88 µM (active)
same,AC50,[16],12.3 µM (active)
O=C(Cc1ccccn1)N1CCCCN2[C@@H](CO)[C@@H](c3ccc(-c4ccccc4F)cc3)[C@@H]2C1,AC50,Paired box protein Pax-8,57 µM (active)
same,AC50,[16],46.2 µM (active)
C=CC[N@@+]12CC[C@]34c5ccccc5N5/C=C6\C7N(/C=C(\C53)[C@@H](C[C@@H]41)/C(=C/CO)C2)c1ccccc1[C@@]71CC[N@@+]2(CC=C)C/C(=C\CO)[C@@H]6C[C@@H]12 (stereo not given in full),AC50,[17],16.5 µM (active)
COCCCNc1ncnc2c1sc1nc(-c3ccco3)c3c(c12)CC(C)(C)OC3,EC50,[13],0.0417 µM (active)
CC(=O)Nc1cc(C(=O)OC(C(=O)c2ccccc2)c2ccccc2)ccc1C (stereo not given),IC50,[18],> 50 µM (not active)
same,EC50,[13],0.402 µM (active)
Nc1cc(-c2ccccc2)nn1S(=O)(=O)c1ccc(F)cc1,AC50,[19],59.6 µM (active)
same,AC50,[20],3.4 µM (active)
same,AC50,[21],3.99 µM (active)
NC1(N2SC(S)=C3CCCC=C32)CCCCC1,AC50,[17],12.1 µM (active)
COc1ccc2c3c(n(C)c2c1)[C@@H](CO)N(Cc1ccc(F)cc1)CC31CCN(CC2CC2)CC1,AC50,[1],3.48 µM (active)
same,AC50,[2],> 39 µM (inactive)
Cn1c2c(c(=O)c3ccccc31)CCCC2,IC50,[14],6.99 µM (active)
same,IC50,[15],4.22 µM (active)
COC(=O)C1(C(=O)OC)C[C@H](c2ccc(OC)cc2)N(Cc2ccccc2OC)[C@@H]1c1cccs1,AC50,[19],2.05 µM (active) and 2.55 µM (active)
same,AC50,[22],4.03 µM (active) and 2.19 µM (active)
same,AC50,[20],4.05 µM (active) and 2.64 µM (active)
CN(C)CCCNc1nc2cc(-c3cccc(C(F)(F)F)c3)sc2c(=O)n1C,AC50,[17],7.9 µM (active)
COC(=O)Cn1ccc(N(C)C)c(C#N)c1=O,IC50,[14],4.07 µM (active)
same,IC50,[15],2.89 µM (active)
COc1cc([C@@H]2c3cc4c(cc3[C@@H](OC)[C@H]3COC(=O)[C@H]23)OCO4)cc(OC)c1O,IC50,[11],> 80 µM (inactive)
COC(=O)C1(C(=O)OC)C[C@H](c2ccccc2)N(Cc2ccccc2OC)[C@@H]1c1ccccc1,AC50,[19],1.65 µM (active)
same,AC50,[22],1.75 µM (active)
same,AC50,[20],3.26 µM (active)
same,AC50,[21],2.41 µM (active)
CCCN(C)C[C@H]1Oc2ncc(C#Cc3ccc(OC)cc3)cc2C(=O)N([C@@H](C)CO)C[C@H]1C,AC50,[1],2.78 µM (active)
same,AC50,[2],28.8 µM (active)
COc1ccc([C@H]2/C=C\CN(Cc3ccc(N(C)C)cc3)[C@@H](C)C(=O)N2Cc2ccc(F)cc2)cc1,EC50,[13],4.36 µM (active)
O=C(Nc1cccc(-c2nc3ccccc3s2)c1)c1cccs1,CC50,[23],15.4 µM (active)
same,EC50,[13],16.9 µM (inactive)
COc1ccc(C(=O)c2ccc(N(C)C)cc2)c(OC)c1,IC50,[11],> 80 µM (inactive)
Cc1ccccc1NC(=O)c1ccc(C)c(S(=O)(=O)NCc2cccnc2)c1,IC50,[14],9.77 µM (active)
same,IC50,[15],5.77 µM (active)
CCN(CC)P(=S)(c1c(C)nc2ccccn12)c1c(C)nc2ccccn12,CC50,[24],13.9 µM (active)
CCC(=O)N(C)C[C@@H]1Oc2cc(C#Cc3ccccc3)ccc2S(=O)(=O)N([C@H](C)CO)C[C@H]1C,AC50,[19],7.15 µM (active)
same,AC50,[22],1.58 µM (active)
same,AC50,[21],54.8 µM (active)
